Results on two compounds are retold here after the NIST ThermoML archive (doi:10.1016/j.jct.2012.08.033).

Molecules are shown by their SMILES. Numbers after ± are expanded uncertainties.

For series [1] the following is noted: Liquid, vibrating tube.
Series [2] can be described thus: xn = mol fraction of the nth substance listed. Particulars: Liquid, vibrating tube, x1 = 1.

In the case of `O` [water], the mass density in series [1] (293.28 K, 100.7 kPa) is 998.33 ± 2 kg/m3; in series [1] (313.3 K, 78.5 kPa), 992.09 ± 2 kg/m3.
As to `O` [water] + C1CCOC1, the mass density in series [2] (293.28 K, 100.7 kPa) is on record as 998.33 ± 2 kg/m3; in series [2] (313.3 K, 78.5 kPa), 992.09 ± 2 kg/m3.
